Test results published in patent US20240197729A1, “ALK-5 Inhibitors and Uses Thereof” (Sumitomo Pharma Oncology, Inc., priority 2021, published 2024).

Columns and labels:
A549 lung fibroblasts = test: Epithelial to mesenchymal transition gene expression in A549; format: cell-based; conditions: 5 ng/ml TGF-beta1, 48 h, up to 5 micromolar
Method: To evaluate whether Compounds 01 and 04 could inhibit epithelial to mesenchymal transition (EMT), an in vitro model using A549 lung fibroblasts was utilized. A549 cells were purchased from ATCC (CCL-185), and grown in RPMI media supplemented with 10 percent fetal bovine serum (FBS). On the day of the experiment, ten thousand A549 cells were seeded in eighty microliters total volume into a flat, tissue culture coated, ninety-six-well plate. Drugs, including positive control compounds vactosertib, PF-06952229 and LY3200882, were added in an eight point, one to three dilution series with the highest concentration of each drug being five micromolar, bringing the total volume of each well to ninety microliters. DMSO, which served to dissolve the 10 millimolar stock solution of each drug, was normalized across all wells After one hour of drug pretreatment, recombinant human TGF-beta1 was added to a final concentration of five nanograms per milliliter, bringing the volume to one hundred microliters. Recombinant human TGF-beta 1 was purchased from R&D Systems (7754-BH-005) and its stock solution was prepared according to manufacturer's instructions and diluted in RPMI media supplemented with 10% FBS. The ninety-six well plate with one hundred microliter volume was incubated at 37° C. at 5% CO2 for forty-eight hours. At the end of the incubation period, gene expression levels of various EMT markers were assessed using a custom designed QuantiGene Plex Gene Expression Assay. The genes chosen were CDH1 (E-cadherin), CDH2 (N-Cadherin), SNAI1 (Snail), SNAI2 (Slug), VIM (Vimentin), SPARC, GALNT6, CTNNB1 (beta-catenin), TGFB1, and MAML3.
Briefly, cell lysate was prepared using the QuantiGene Sample Processing Kit —Cultured Cells (QS0100) in the ninety-six well plate. Cell lysates were then subjected to bead hybridization, multiple probe hybridization steps and SAPE labeling following manufacturer's instruction. The plate was read on a Luminex MAGPIX instrument.

[1] = system: TGF-β1-induced SMAD signaling pathway; test: RD SMAD reporter (RDSR) assay; format: cell-based; conditions: Homo sapiens; 200 pg/ml rhTGF-beta1, 24 h
From the text: TGF-beta (also referred to as TGF-β1) is a multifunctional, highly conserved cytokine with many key functions in development, cell growth and apoptosis, and plays a key role in the tissue repair response and functions as a potent immune modulator. TGF-β signaling is triggered when the activated TGF-β homodimer binds to the TGF-β receptor 2, which in turn leads to the recruitment and phosphorylation of TGF-β receptor 1 (ALK5). Activated TGF-β receptor 1 phosphorylates the signal transduction molecules SMAD2 and SMAD3. These bind to common mediator SMAD4 and translocate to the nucleus where they bind to short conserved DNA sequences called the SMAD binding element and induce the transcription of various target genes.
A stable cellular reporter, the RD SMAD reporter (RDSR), was generated to test the ability of certain compounds disclosed herein to inhibit the canonical TGF-β1-induced SMAD signaling pathway in a cellular context. The RD SMAD reporter (RDSR) cell line was generated by stably integrating the SMAD cellular reporter plasmid (Promega, pGL4.48[luc2P/SBE/Hygro]) into the human rhabdomyosarcoma cell line RD (ATCC, CCL-136). Once SMAD signaling was triggered with, for example, the addition of TGF-beta1, receptor-activated SMADs bind the SMAD binding elements (SBEs) leading to the expression of intracellular luciferase.
The rhabdomyosarcoma line RD (ATCC, CCL-136) was transfected with a SMAD reporter vector (Promega, E3671) and a polyclonal stable cell line was selected using hygromycin B. The transfected vector contained three copies of a Smad-binding element (SBE) that drives transcription of the luciferase reporter gene luc2P (Photinus pyralis). luc2P is a synthetically-derived luciferase sequence with humanized codon optimization that is designed for high expression and reduced anomalous transcription. The luc2P gene contains hPEST, a protein destabilization sequence, which allows luc2P protein levels to respond more quickly than those of luc2 to induction of transcription. The intracellular luciferase is quantified by the addition of equal volume (100 μl) of ONE-GLO substrate (Promega, E6120) and read within ten minutes on the Envision plate reader. The stable RDSR cell line was tested by evaluating the response to human TGF-beta1 (R&D Systems, 7754-BH-005) as well as myostatin (R&D Systems, 788-G8-010/CF) in a concentration-dependent manner after twenty-four hours of stimulation. […] For compound evaluation, the tool compounds (vactosertib and PF-06952229 (a TGFβR1 inhibitor available from MedChem Express HY-136244) were included as positive controls) or test compounds were incubated with cells for one hour at 37° C. then stimulated with 200 pg/ml rhTGF-beta1 for twenty-four hours. The activity of the reporter was determined with the addition of ONE-GLO (Promega) substrate, and luminescence counts were collected on the Envision plate reader (Perkin Elmer). The IC50 or EC50 was calculated using nonlinear regression curve fitting with graph pad prism software.
A comparative RDSR analysis was performed using IC50 values for selected compounds and standards obtained using the RDSR assay protocol described in Example 3.
The tool compounds vactosertib (an ALK5 inhibitor sourced from MedChem Express, HY-19928) and PF-06952229 (a TGFβR1 inhibitor) were included in the study as comparator compounds. Selected example compounds or comparator compounds were incubated with cells for one hour at 37° C. then stimulated with 200 pg/ml rhTGF-beta1 for twenty-four hours. The activity of the reporter was determined by adding ONE-GLO (Promega) substrate, and collecting luminescence counts on the Envision plate reader (Perkin Elmer).
Each of the example compounds and comparator compounds were tested at drug concentrations of from 20 micromolar to 1 nanomolar, and the IC50 value for each was calculated using Graph Pad Prism software. DMSO was used as a negative control and all wells contained normalized DMSO concentrations. […]

ALK5 = biological target: T1, ALK5 (Homo sapiens, UniProt P36897); test: LanthaScreen Eu Kinase Binding Assay, ALK5; conditions: 10-point titration, read-out: Kinase Inhibition: ALK5 IC50 (Lantha)
T1 sequence (P36897 34-503): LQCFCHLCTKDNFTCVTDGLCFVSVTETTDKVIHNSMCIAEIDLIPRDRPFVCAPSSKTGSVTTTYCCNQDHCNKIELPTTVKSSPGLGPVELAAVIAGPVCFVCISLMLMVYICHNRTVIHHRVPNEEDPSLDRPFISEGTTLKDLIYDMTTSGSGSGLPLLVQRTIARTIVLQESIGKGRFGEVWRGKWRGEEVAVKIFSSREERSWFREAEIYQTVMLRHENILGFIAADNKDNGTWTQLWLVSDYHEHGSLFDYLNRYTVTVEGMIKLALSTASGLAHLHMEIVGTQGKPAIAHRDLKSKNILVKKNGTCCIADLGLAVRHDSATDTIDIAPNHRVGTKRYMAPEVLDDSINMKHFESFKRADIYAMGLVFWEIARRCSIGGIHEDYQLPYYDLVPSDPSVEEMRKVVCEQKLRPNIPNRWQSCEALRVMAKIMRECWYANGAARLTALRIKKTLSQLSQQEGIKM
Method: Selected compounds of the present disclosure were assayed for inhibitory activity against ALK5 and ALK2. Activity determinations and selectivity were conducted by Thermo Fisher Scientific SelectScreen™ Biochemical Kinase Profiling Service using their LanthaScreen™ Eu Kinase Binding Assay Screening.
Binding of an Alexa Fluor™ conjugate or “tracer” to a kinase is detected by addition of a Eu-labeled anti-tag antibody. Binding of the tracer and antibody to a kinase results in a high degree of FRET, whereas displacement of the tracer with a kinase inhibitor results in a loss of FRET. This assay is carried out by mixing the compound tested with the reagents and reading; no development step is required.
Life Technologies' Kinase Tracers are based on ATP-competitive kinase inhibitors, making them suitable for detection of any compounds that bind to the ATP site. Inhibitors that bind the ATP site include both Type I kinase inhibitors, which bind solely to the ATP site, and Type II inhibitors (e.g., Gleevec®/Imatinib, Sorafenib, BIRB-796), which bind to both the ATP site and a second site often referred to as the allosteric site.
The test compounds were screened in 1% DMSO (final) in the well. For 10-point titrations, 3-fold serial dilutions were conducted from the starting concentration (see Table 2 below).
All Kinase/Antibody Mixtures were diluted to a 2× working concentration in the specified kinase buffer. The 4× AlexaFluor labeled Tracer was prepared in Kinase Buffer.
• Bar-coded, low volume, white, 384-well plate (Greiner Cat. #784207) • 1. 160 nL—100× Test Compound in 100% DMSO • 2. 3.84 μL—Kinase Buffer • 3. 8.0 μL—2× Kinase/Antibody Mixture • 4. 4.0 μL—4× Tracer • 5. 30-second plate shake • 6. 60-minute incubation at room temperature • 7. Read on fluorescence plate reader and analysis of the data
The following controls were made for each individual kinase and were located on the same plate as the kinase:
100% Displacement Control: The minimum Emission Ratio was established by the 100% Displacement Control wells, which contained the highest concentration of the known inhibitor used in that assay.
Known Inhibitor: A known inhibitor control standard curve, 10-point titration, was run for each individual kinase on the same plate as the kinase to ensure the inhibitor was displaced within an expected IC50 range previously determined.
The following equations were used for each set of data points: […]
Data generated were plotted using the graphing software XLfit from IDBS. The dose response curve was curve fit to model number 205.

JAK signaling = test: JAK selectivity assay, HEK blue IL-12 reporter; format: cell-based; conditions: HEK-Blue, 24 h, 12.5 ng/ml IL-12, 24 h
Method: The cells were purchased from Invivogen (Catalog Nr: hkb-il12) and maintained according to vendor instructions. On the day of the experiment, cells were harvested by repeated tapping of the flask to shake loose the cells attached to the bottom of the flask. Then, cells were harvested, washed and resuspended in DMEM media supplemented with 10% fetal calf serum. 30 Microliters of cell suspension was seeded into a 384-well tissue culture-coated plate containing approximately 10,000 total cells. […] Using the ECHO “Dose Response” software, the test compound was added in duplicate wells with a 3-fold dilution curve. DMSO was back-filled to normalize the DMSO across all wells. […] After 30 minutes of incubation at room temperature, the optical density was measured at 620 nanometer using the Perkin Elmer Envision plate reader. A color change can be detected at this wavelength when secreted alkaline phosphatase, which is triggered by IL-12 signaling, is present in the supernatant. […]

| EC50 [1] [nM] | IC50 (ALK5) [nM] | IC50 (JAK signaling) [nM] | SMILES | CDH1 (E-Cadherin) gene expression (A549 lung fibroblasts) | expression of the nine genes induced with EMT (CDH2, SNAI1, SNAI2, VIM, SPARC, GALNT6, CTNNB1, TGFB1, MAML3) (A549 lung fibroblasts) |
| --- | --- | --- | --- | --- | --- |
|  |  |  | CC(C)c1cnc(-c2cc(Cl)ccc2F)cc1Nc1ccncc1C(=O)NC(CO)CO [PF-06952229, reference compound] | inhibition of downregulation of CDH1 (E-Cadherin) | inhibition of induction of the nine genes that are induced with EMT |
| < 50 | 2 to 5 |  | Cc1cccc2c(Nc3ccnc(Nc4ccc(C5CCOCC5)cc4)c3)cnnc12 [Compound 08, N4-(8-methylcinnolin-4-yl)-N2-[4-(oxan-4-yl)phenyl]pyridine-2,4-diamine] |  |  |
| < 50 | 2 to 5 |  | Cc1cccc2c(Nc3ccnc(Nc4cccc(N5CCOCC5)c4)c3)cnnc12 [Compound 03, N4-(8-methylcinnolin-4-yl)-N2-[3-(morpholin-4-yl)phenyl]pyridine-2,4-diamine] |  |  |
| 50 to 100 | 2 to 5 |  | Cc1cccc2c(Nc3ccnc(Nc4cccc(C5CCOCC5)c4)c3)cnnc12 [Compound 07, N4-(8-methylcinnolin-4-yl)-N2-[3-(oxan-4-yl)phenyl]pyridine-2,4-diamine] |  |  |
|  |  | < 300 | Cc1cnc(Nc2ccc(OCCN3CCCC3)cc2)nc1Nc1cccc(S(=O)(=O)NC(C)(C)C)c1 [Fedratinib, fedratinib] |  |  |
| < 50 | 2 to 5 |  | Cc1cccc2c(Nc3ccnc(Nc4ccc(N5CCN(C)CC5)cc4)c3)cnnc12 [Compound 06, N4-(8-methylcinnolin-4-yl)-N2-[4-(4-methylpiperazin-1-yl)phenyl]pyridine-2,4-diamine] |  |  |
| 50 to 100 | < 5 |  | Cc1nn(CC(F)(F)F)cc1Nc1cc(Nc2cnnc3c(Cl)cccc23)ccn1 [Compound 02, N2-[3-methyl-1-(2,2,2-trifluoroethyl)-1H-pyrazol-4-yl]-N4-(8-chlorocinnolin-4-yl)pyridine-2,4-diamine] |  |  |
|  |  |  | CC(C)(O)c1cc(Nc2cc(Oc3cn(C4CC4)nc3C3CCOCC3)ccn2)ccn1 [LY3200882, reference compound] | inhibition of downregulation of CDH1 (E-Cadherin) | inhibition of induction of the nine genes that are induced with EMT |
